Data as given in patent publication US20190369111A1, “MOLECULAR KINETICS EVALUATION METHOD AND SCREENING METHOD” (Tokyo University of Science Foundation, priority 2016, published 2019).

Target: T1, MDM2 protein (Homo sapiens, UniProt Q00987)
T1 construct: an endogenous wild-type p53 protein and MDM2 protein in HCT116 cells (human large intestine cancer cells); endogenous in cells; host or cells: HCT116 cells
Assay: Degradation of endogenous MDM2 protein in HCT116 cells, Western blot analysis
Assay type: cell-based
Conditions: 48 hours after addition
Protocol: HCT116 cells were seeded in a 24-well plate at a cell density of 8×10^4 cells/well, and then cultured under conditions of 37° C. and 5 vol % CO2 for 16 hours.
After 16 hours from cell seeding, TIBC-CANDDY_MLN or TIBC was added to HCT116 cells as follows. As a medium, a serum-free medium (37° C.) in which 1 mass % L-glutamine solution (Sigma-Aldrich) was added to D-MEM (high D-glucose, phenol red, sodium pyruvate (Wako Pure Chemical Industries, Ltd.)) was used. It is noted that the L-glutamine solution was added immediately before use. A DMSO solution containing TIBC-CANDDY_MLN or TIBC was mixed with the medium so that the concentration of DMSO was 1 vol %, and added to each well at 500 μL/well, and cultured under conditions of 37° C. and 5 vol % CO2. As a control, DMSO was used.
The medium was removed 48 hours after addition of TIBC-CANDDY_MLN or TIBC, and then PBS was added to wash the cells. […]
After electrophoresis, proteins were transferred to a PVDF membrane (Immobion™-P, Millipore) under conditions of 100 V and 2 hours using a tank-type blotting device and a transfer buffer (25 mM Tris-HCl, 195 mM glycine, 0.01% SDS, 15% methanol). […] Subsequently, the membrane was treated with a chemiluminescence reagent Immobilon™ Western (Millipore), and then chemiluminescence was detected using a lumino image analyzer LAS-3000 (FUJIFILM Corporation).

T1 sequence (Q00987 whole entry): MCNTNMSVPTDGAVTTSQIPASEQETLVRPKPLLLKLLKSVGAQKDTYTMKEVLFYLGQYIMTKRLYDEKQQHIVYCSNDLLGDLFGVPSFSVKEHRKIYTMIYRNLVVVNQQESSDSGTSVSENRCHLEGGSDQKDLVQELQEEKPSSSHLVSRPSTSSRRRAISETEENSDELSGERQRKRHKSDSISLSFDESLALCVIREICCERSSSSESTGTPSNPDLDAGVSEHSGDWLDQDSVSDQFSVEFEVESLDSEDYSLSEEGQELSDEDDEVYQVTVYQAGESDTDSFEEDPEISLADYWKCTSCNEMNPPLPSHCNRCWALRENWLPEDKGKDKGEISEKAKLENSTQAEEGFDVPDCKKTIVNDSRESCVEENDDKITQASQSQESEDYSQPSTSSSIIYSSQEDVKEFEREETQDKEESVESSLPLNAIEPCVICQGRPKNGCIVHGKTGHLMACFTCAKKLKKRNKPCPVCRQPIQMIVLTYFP

- amount of endogenous MDM2 protein: reduced
Compound: CC(C)C[C@H](NC(=O)CNC(=O)c1cc(Cl)ccc1Cl)C(=O)NCCCCCCC(=O)Nc1ccc(C(=O)/C=C/c2ccc(I)cc2)cc1 [TIBC-CANDDY_MLN]
